Assay results: patent US9133179B2, “2-methoxy-pyridin-4-yl-derivatives” (Actelion Pharmaceuticals Ltd., priority 2011, dated 2015)

How the values were obtained:
[1] = molecular target: T1, human S1P1 (EDG1) receptor (Homo sapiens, UniProt P21453); experiment: S1P1 β-arrestin recruitment (Tango) assay to determine EC50 values; format: cell-based; settings: Tango-EDG1 bla U2OS cells, 16 h incubation
T1 construct: host or cells: U2OS (Tango EDG1-bla U2OS)
From the text: S1P1 β-Arrestin Recruitment (Tango) Assay to Determine EC50 Values
Upon ligand activation, G protein-coupled receptors (GPCR) trigger two pathways that independently transduce signals to the cell: one through heterotrimeric GTP-binding proteins (G proteins) and one through β-arrestins. Agonist-induced GPCRs recruit β-arrestin proteins, which then bind to the carboxy-terminal domain of ligand-activated GPCRs. The amount of β-arrestin recruitment can be used to assess the potency and efficacy of GPCR activating ligands.
To measure the potency and efficacy of compounds as S1P1 (EDG1) receptor agonists, Tango™-EDG1 bla U2OS cells (Invitrogen, USA, Catalog #K1520) are used. The Tango™ GPCR technology is based on GeneBLAzer β-lactamase reporter cell assays, which uses a mammalian-optimized β-lactamase reporter gene (bla) combined with a FRET-enabled substrate. The host cells, U2OS, stably express a human S1P1 (EDG1) receptor/transcription factor (TF) fusion protein. The cells also express a recombinant protease tagged β-arrestin protein, which is recruited to the S1P1 receptor upon ligand stimulation and specifically cleaves the S1P1-TF fusion protein. The released TF activates the β-lactamase (bla) reporter gene. To measure the reporter gene activity, cells are loaded with a fluorescent substrate containing two chemically coupled fluorophores, coumarin and fluorescein. […] In the presence of bla, the chemical bond is cleaved and FRET is inhibited. […] The amount of β-arrestin recruitment is proportional to the increase in blue fluorescence.
Tango™-EDG1 bla U2OS cells are cultivated in McCoy's 5A containing 10% dialyzed FBS, 0.1 mM NEAA, 25 mM HEPES, 1 mM sodium pyruvate, 1% Penicillin/Streptomycin, 200 μg/ml zeocin, 50 μg/ml hygromycin and 100 μg/ml geneticin (Invitrogen, USA). Cells are detached with trypsin, resuspended in medium and then counted.
Compounds (10 mM stock in DMSO) are diluted first in DMSO. The pre-diluted compounds solutions are then transferred into Assay Medium/0.1% fatty acid free BSA to reach a fourfold concentrated compound stock, which is applied to the cells to reach the final compound concentrations that range from 10 μM to 0.0005 nM (0.5% final DMSO). Cells are then incubated for 16 h at 37° C. and 5% CO2.

circulating lymphocytes = experiment: Assessment of in vivo efficacy: circulating lymphocytes after oral administration to Wistar rats; set-up: species or system rat; settings: Rattus norvegicus, Lymphocyte; 6 h after oral administration of 10 mg/kg, normotensive male Wistar rats, compared to vehicle group; read-out: Lymphocyte counts
Description: Assessment of In Vivo Efficacy
The efficacy of the compounds of Formula (I) is assessed by measuring the circulating lymphocytes after oral administration of 3 to 30 mg/kg of a compound of Formula (I) to normotensive male Wistar rats. The animals are housed in climate-controlled conditions with a 12 h-light/dark cycle, and have free access to normal rat chow and drinking water. […] Full blood is subjected to hematology using Advia Hematology system (Bayer Diagnostics, Zurich, Switzerland).
All data are presented as mean±SEM. Statistical analyses are performed by analysis of variance (ANOVA) using Statistica (StatSoft) and the Student-Newman-Keuls procedure for multiple comparisons. The null hypothesis is rejected when p<0.05.

rat trachea rings = experiment: Measurement of isometric force development: constriction of rat trachea rings; settings: for % trachea constriction at 30 nM / % trachea constriction at 0.3 μM / % trachea constriction at 3 μM / % trachea constriction at 10 μM / % trachea constriction at 30 μM / % trachea constriction at 10 nM: in % of the constriction induced by 50 mM KCl; for activation at 0.1 µM / activation at 1 µM: Rattus norvegicus; for activation at 0.1 µM: read-out: % trachea constriction at 0.1 μM; for activation at 1 µM: read-out: % trachea constriction at 1 μM; for concentration at which significant (or full) rat trachea constriction is shown: rat trachea rings
Description: Measurement of Isometric Force Development
Female Wistar rats are euthanized by exposure to CO2. The tracheae are excised and rings from the lower segments are prepared. […] A resting force of 2 g (20 mN) is applied to the ring preparation, and changes in force generation are measured using an isometric force recorder (EMKA Technologies Inc., Paris, France). Viability of rings is assessed by exposure to a depolarizing concentration of KCl (50 mM). Contraction of trachea is expressed as a percentage of the response to KCl.
The compounds are prepared as stock solutions of 0.3 mM in pure DMSO.

T1 sequence (P21453 whole entry): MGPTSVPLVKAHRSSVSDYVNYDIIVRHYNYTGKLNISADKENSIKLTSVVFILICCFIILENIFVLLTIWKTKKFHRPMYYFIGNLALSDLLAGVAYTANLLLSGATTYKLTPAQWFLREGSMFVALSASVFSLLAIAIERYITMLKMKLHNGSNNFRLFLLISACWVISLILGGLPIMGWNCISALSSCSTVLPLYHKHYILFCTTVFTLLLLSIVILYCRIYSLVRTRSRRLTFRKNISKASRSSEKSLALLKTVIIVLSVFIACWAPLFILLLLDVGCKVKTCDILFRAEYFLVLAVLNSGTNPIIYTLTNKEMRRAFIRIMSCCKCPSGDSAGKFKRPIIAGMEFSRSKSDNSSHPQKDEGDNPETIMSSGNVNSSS

CCc1cc(-c2nc(-c3cc(OC)nc(C4CCCC4)c3)no2)cc(C)c1OCCCC(=O)O [Example 54, 4-(4-(3-(2-Cyclopentyl-6-methoxypyridin-4-yl)-1,2,4-oxadiazol-5-yl)-2-ethyl-6-methylphenoxy)butanoic acid]
EC50 [1]: 0.1 nM | change in vivo at 10 mg/kg (circulating lymphocytes): -72% | % trachea constriction at 30 nM (rat trachea rings): <5% | % trachea constriction at 0.3 μM (rat trachea rings): 55% | activation at 0.1 µM (rat trachea rings): 5.6% | activation at 1 µM (rat trachea rings): 76%

CCc1cc(-c2noc(-c3cc(OC)nc(C4CCCC4)c3)n2)cc(C)c1OC[C@@H](O)CNC(CO)CO [Example 4]
EC50 [1]: 6.6 nM | change in vivo at 10 mg/kg (circulating lymphocytes): -65% | % trachea constriction at 3 μM (rat trachea rings): <5% | % trachea constriction at 10 μM (rat trachea rings): <5% | % trachea constriction at 30 μM (rat trachea rings): <5% | activation at 1 µM (rat trachea rings): < 5%

CCc1cc(-c2noc(-c3cc(OC)nc(C4CCCC4)c3)n2)cc(C)c1OCC(=O)O [Example 5, 2-(4-(5-(2-Cyclopentyl-6-methoxypyridin-4-yl)-1,2,4-oxadiazol-3-yl)-2-ethyl-6-methylphenoxy)acetic acid]
EC50 [1]: 1.6 nM | change in vivo at 10 mg/kg (circulating lymphocytes): -35% | % trachea constriction at 10 nM (rat trachea rings): <5% | % trachea constriction at 30 nM (rat trachea rings): <5% | % trachea constriction at 0.3 μM (rat trachea rings): 84% | activation at 0.1 µM (rat trachea rings): 66% | activation at 1 µM (rat trachea rings): 124%

COc1cc(-c2nc(-c3cc(C)c(OCCNCCO)c(Cl)c3)no2)cc(C2CCCC2)n1 [Example 45, 2-((2-(2-Chloro-4-(5-(2-cyclopentyl-6-methoxypyridin-4-yl)-1,2,4-oxadiazol-3-yl)-6-methylphenoxy)ethyl)amino)ethanol]
EC50 [1]: 1.7 nM | change in vivo at 10 mg/kg (circulating lymphocytes): -72% | % trachea constriction at 3 μM (rat trachea rings): <5% | % trachea constriction at 10 μM (rat trachea rings): 52% | activation at 1 µM (rat trachea rings): < 5% | concentration at which significant (or full) rat trachea constriction is shown (rat trachea rings): 10 µM

CCc1cc(-c2noc(-c3cc(OC)nc(C4CCCC4)c3)n2)cc(C)c1OCC(=O)NCCO [Example 13, 2-(4-(5-(2-Cyclopentyl-6-methoxypyridin-4-yl)-1,2,4-oxadiazol-3-yl)-2-ethyl-6-methylphenoxy)-N-(2-hydroxyethyl)acetamide]
EC50 [1]: 2.4 nM | change in vivo at 10 mg/kg (circulating lymphocytes): -77% | % trachea constriction at 10 μM (rat trachea rings): <5% | activation at 1 µM (rat trachea rings): < 5%

CCc1cc(-c2noc(-c3cc(OC)nc(C4CCCC4)c3)n2)cc(C)c1OCCNCC(=O)O [Example 7, 2-((2-(4-(5-(2-Cyclopentyl-6-methoxypyridin-4-yl)-1,2,4-oxadiazol-3-yl)-2-ethyl-6-methylphenoxy)ethyl)amino)acetic acid]
EC50 [1]: 1.5 nM | change in vivo at 10 mg/kg (circulating lymphocytes): -70% | % trachea constriction at 10 nM (rat trachea rings): <5% | % trachea constriction at 0.3 μM (rat trachea rings): <5% | activation at 0.1 µM (rat trachea rings): < 5% | activation at 1 µM (rat trachea rings): 68% | concentration at which significant (or full) rat trachea constriction is shown (rat trachea rings): 1 µM

COc1cc(-c2nc(-c3cc(Cl)c(OCCCC(=O)O)c(OC)c3)no2)cc(C2CCCC2)n1 [Example 35, 4-(2-Chloro-4-(5-(2-cyclopentyl-6-methoxypyridin-4-yl)-1,2,4-oxadiazol-3-yl)-6-methoxyphenoxy)butanoic acid]
EC50 [1]: 0.627 nM | change in vivo at 10 mg/kg (circulating lymphocytes): -71% | % trachea constriction at 10 nM (rat trachea rings): <5% | % trachea constriction at 30 nM (rat trachea rings): <5% | activation at 0.1 µM (rat trachea rings): 86% | activation at 1 µM (rat trachea rings): 108%

CCc1cc(-c2noc(-c3cc(OC)nc(C4CCCC4)c3)n2)cc(C)c1OC[C@@H](O)CNCCO [Example 3]
EC50 [1]: 8.3 nM | change in vivo at 10 mg/kg (circulating lymphocytes): -25% | % trachea constriction at 3 μM (rat trachea rings): <5% | % trachea constriction at 10 μM (rat trachea rings): <5% | % trachea constriction at 30 μM (rat trachea rings): <5% | activation at 1 µM (rat trachea rings): < 5%

CCc1cc(-c2noc(-c3cc(OC)nc(C4CCCC4)c3)n2)cc(C)c1OCCN1CC(C(=O)O)C1 [Example 2, 1-(2-(4-(5-(2-Cyclopentyl-6-methoxypyridin-4-yl)-1,2,4-oxadiazol-3-yl)-2-ethyl-6-methylphenoxy)ethyl)azetidine-3-carboxylic acid]
EC50 [1]: 0.4 nM | change in vivo at 10 mg/kg (circulating lymphocytes): -70% | % trachea constriction at 10 nM (rat trachea rings): <5% | % trachea constriction at 30 nM (rat trachea rings): <5% | % trachea constriction at 0.3 μM (rat trachea rings): 55% | activation at 0.1 µM (rat trachea rings): < 5% | activation at 1 µM (rat trachea rings): 93%

COc1cc(-c2nc(-c3cc(C)c(OCC(=O)O)c(Cl)c3)no2)cc(C2CCCC2)n1 [Example 41, 2-(2-Chloro-4-(5-(2-cyclopentyl-6-methoxypyridin-4-yl)-1,2,4-oxadiazol-3-yl)-6-methylphenoxy)acetic acid]
EC50 [1]: 1.1 nM | change in vivo at 10 mg/kg (circulating lymphocytes): -49% | % trachea constriction at 10 nM (rat trachea rings): <5% | % trachea constriction at 30 nM (rat trachea rings): 10% | activation at 0.1 µM (rat trachea rings): 56% | activation at 1 µM (rat trachea rings): 120%

CCc1cc(-c2noc(-c3cc(OC)nc(C4CCCC4)c3)n2)cc(C)c1OCCNCCC(=O)O [Example 1, 3-((2-(4-(5-(2-Cyclopentyl-6-methoxypyridin-4-yl)-1,2,4-oxadiazol-3-yl)-2-ethyl-6-methylphenoxy)ethyl)amino)propanoic acid]
EC50 [1]: 0.04 nM | change in vivo at 10 mg/kg (circulating lymphocytes): -69% | % trachea constriction at 0.3 μM (rat trachea rings): 53% | activation at 0.1 µM (rat trachea rings): < 5% | activation at 1 µM (rat trachea rings): 96%

CCc1cc(-c2noc(-c3cc(OC)nc(C4CCCC4)c3)n2)cc(C)c1OCCCNC(=O)CCC(=O)O [Example 32, 4-((3-(4-(5-(2-Cyclopentyl-6-methoxypyridin-4-yl)-1,2,4-oxadiazol-3-yl)-2-ethyl-6-methylphenoxy)propyl)amino)-4-oxobutanoic acid]
EC50 [1]: 0.072 nM | change in vivo at 10 mg/kg (circulating lymphocytes): -65% | % trachea constriction at 0.3 μM (rat trachea rings): 50% | activation at 0.1 µM (rat trachea rings): 27% | activation at 1 µM (rat trachea rings): 105%

CCc1cc(-c2noc(-c3cc(OC)nc(C4CCCC4)c3)n2)cc(C)c1OCCNCC(O)CO (racemic) [Example 27, rac-3-((2-(4-(5-(2-Cyclopentyl-6-methoxypyridin-4-yl)-1,2,4-oxadiazol-3-yl)-2-ethyl-6-methylphenoxy)ethyl)amino)propane-1,2-diol]
EC50 [1]: 10.3 nM | change in vivo at 10 mg/kg (circulating lymphocytes): -42%

CCc1cc(-c2nnc(-c3cc(OC)nc(C4CCCC4)c3)o2)cc(C)c1OCCN1CC(C(=O)O)C1 [Example 63, 1-(2-(4-(5-(2-Cyclopentyl-6-methoxypyridin-4-yl)-1,3,4-oxadiazol-2-yl)-2-ethyl-6-methylphenoxy)ethyl)azetidine-3-carboxylic acid]
EC50 [1]: 1.1 nM | change in vivo at 10 mg/kg (circulating lymphocytes): -71%

CCc1cc(-c2noc(-c3cc(OC)nc(C4CCCC4)c3)n2)cc(C)c1OCCCNC(=O)CC(=O)O [Example 31, 3-((3-(4-(5-(2-Cyclopentyl-6-methoxypyridin-4-yl)-1,2,4-oxadiazol-3-yl)-2-ethyl-6-methylphenoxy)propyl)amino)-3-oxopropanoic acid]
EC50 [1]: 0.0716 nM | change in vivo at 10 mg/kg (circulating lymphocytes): -68%

CCc1cc(-c2nnc(-c3cc(OC)nc(C4CCCC4)c3)o2)cc(C)c1OCCNCCC(=O)O [Example 62, 3-((2-(4-(5-(2-Cyclopentyl-6-methoxypyridin-4-yl)-1,3,4-oxadiazol-2-yl)-2-ethyl-6-methylphenoxy)ethyl)amino)propanoic acid]
EC50 [1]: 0.2 nM | change in vivo at 10 mg/kg (circulating lymphocytes): -63%

CCc1cc(-c2noc(-c3cc(OC)nc(C4CCCC4)c3)n2)cc(C)c1OCCCNCC(=O)O [Example 18, 2-((3-(4-(5-(2-Cyclopentyl-6-methoxypyridin-4-yl)-1,2,4-oxadiazol-3-yl)-2-ethyl-6-methylphenoxy)propyl)amino)acetic acid]
EC50 [1]: 0.3 nM | change in vivo at 10 mg/kg (circulating lymphocytes): -24%
